Laboratory results reported in article PMC11145868, “Protein target similarity is positive predictor of in vitro antipathogenic activity: a drug repurposing strategy for Plasmodium falciparum” (Journal of Cheminformatics, 2024).
Structures can show the parent of a compound that is named as a salt. Where two headings read alike, the source gives them in different places.

Tests used:
P. falciparum Dd2-HLH [1] = assay: microbe, parasite or virus in culture; assay type: cell-based, Plasmodium falciparum; details: Plasmodium falciparum
P. falciparum Dd2-HLH [2] = assay: microbe, parasite or virus in culture; assay type: cell-based, Plasmodium falciparum; details: Plasmodium falciparum, read-out: Blood stage 72h EC50
[3] = Mammalian cell cytotoxicity assay, HepG2 (CellTiter-Glo, 72 h); details: human, HepG2 cells
[4] = Mammalian cell cytotoxicity assay, HEK293T (CellTiter-Glo, 72 h); details: human, HEK293T cells
[5] = tested on: P. berghei-luciferase sporozoites; assay: microbe, parasite or virus in culture; assay type: cell-based, Plasmodium berghei; details: Plasmodium berghei, liver-stage parasites
[6] = DD2, 48 h, read-out: Blood stage 48h EC50
[7] = HepG2, 48 hours in culture, read-out: Liver stage 48h EC50
[8] = DD2, Hec50, 48 h, read-out: Blood stage 48 h EC50
[9] = 48 h in culture, read-out: Liver 48 h EC50
[10] = DD2, read-out: EC50 (antiplasmodial, quoted in discussion from Supplementary Table 1)

Compound	EC50 (P. falciparum Dd2-HLH [1]; [6]) [nM]	EC50 (P. falciparum Dd2-HLH [2]; DD2, 72 h) [nM]	CC50 at 72 h [3] [nM]	CC50 at 72 h [4] [nM]	EC50 [5, 7] [nM]	EC50 (P. falciparum Dd2-HLH [1]; [8]) [nM]	EC50 [5, 9] [nM]	EC50 (P. falciparum Dd2-HLH [1]; DD2, P. falciparum blood-stage parasites, 48 hours in culture, read-out: Blood stage 48h EC50) [nM]	EC50 (P. falciparum Dd2-HLH [2]; DD2, P. falciparum blood-stage parasites, 72 hours in culture) [nM]	EC50 (P. falciparum Dd2-HLH [1]; [10]) [nM]
N[C@H](C(=O)O)[C@@H]1CC(Cl)=NO1 [Acivicin]	209	545	1700	7730	1100	–	–	–	–	–
CC1=C(c2ccc(O)cc2)[C@H](c2ccc(OCCN3CCCCC3)cc2)Oc2cc(O)ccc21 [Acolbifene]	218	728	6210	2990	2830	–	–	–	–	–
Cc1cc(N)c2cc(NC(=O)Nc3ccc4nc(C)cc(N)c4c3)ccc2n1 [Aminoquinuride]	79	449	> 9990	> 9950	3490	–	–	–	–	–
COC(=O)[C@]12CCC(C)(C)C[C@H]1[C@H]1C(=O)C=C3[C@@]4(C)C=C(C#N)C(=O)C(C)(C)[C@@H]4CC[C@@]3(C)[C@]1(C)CC2 [Bardoxolone methyl]	340	750	557	208	155	–	–	–	–	–
COc1cc(N2CCC(N3CCN(C)CC3)CC2)ccc1Nc1ncc(Cl)c(Nc2ccccc2P(C)(C)=O)n1 [Brigatinib]	99	346	136	1390	3330	–	–	–	–	–
O=C(NO)c1cnc(N2C[C@@H]3[C@H](C2)[C@H]3NCc2ccc3cc(F)ccc3n2)nc1 [CHR-3996]	20	15	195	920	151	–	–	–	–	–
COc1ccc(-c2nc(N3CCOCC3)c3sc(CN(C)c4ncc(C(=O)NO)cn4)cc3n2)cn1 [CUDC-907, reference compound]	8	18	3	27	–	7.5	39	–	–	–
CO[C@H]1C(=O)[C@]2(C)[C@@H](OC)C[C@H]3OC[C@@]3(OC(C)=O)[C@H]2[C@H](OC(=O)c2ccccc2)[C@]2(O)C[C@H](OC(=O)[C@H](O)[C@@H](NC(=O)OC(C)(C)C)c3ccccc3)C(C)=C1C2(C)C [Cabazitaxel, reference compound]	–	8	784	> 9950	–	6	43	–	–	–
CC(C)C(=O)OCC(=O)[C@@]12O[C@H](C3CCCCC3)O[C@@H]1C[C@H]1[C@@H]3CCC4=CC(=O)C=C[C@]4(C)[C@H]3[C@@H](O)C[C@@]12C [Ciclesonide]	199	661	> 9950	–	3330	–	–	–	–	–
CCN(CC)CC[n+]1ccc2c(C)c3[nH]c4ccc(O)cc4c3c(C)c2c1 [Datelliptium Chloride]	–	193	505	4690	> 10000	–	–	–	–	–
CC(=O)O[C@@]12CO[C@@H]1C[C@H](O)[C@@]1(C)C(=O)[C@H](O)C3=C(C)[C@@H](OC(=O)[C@H](O)[C@@H](NC(=O)OC(C)(C)C)c4ccccc4)C[C@@](O)([C@@H](OC(=O)c4ccccc4)[C@H]21)C3(C)C [Docetaxel]	11	11	24	> 9950	401	–	–	–	–	–
COc1cccc2c1C(=O)c1c(O)c3c(c(O)c1C2=O)C[C@@](O)(C(=O)CO)C[C@@H]3O[C@H]1C[C@H](N)[C@H](O)[C@H](C)O1 [Doxorubicin]	65	250	44	74	1720	–	–	–	–	–
CCCCN(CCCC)CCC(O)c1cc2c(Cl)cc(Cl)cc2c2cc(C(F)(F)F)ccc12 (centres unmarked) [Halofantrine HCl]	–	1	> 9950	> 9950	1880	–	–	–	–	–
CCCCCC(=O)O[C@]1(C(C)=O)CC[C@H]2[C@@H]3CCC4=CC(=O)CC[C@]4(C)[C@H]3CC[C@@]21C [Hydroxyprogesterone caproate]	550	742	863	> 9950	1710	–	–	–	–	–
CN(C)CCCN1c2ccccc2CCc2ccccc21 [Imipramine hydrochloride]	180	963	> 9950	> 9950	> 10000	–	–	–	–	–
C/C(=C\c1csc(C)n1)[C@@H]1C[C@@H]2O[C@]2(C)CCC[C@H](C)[C@H](O)[C@@H](C)C(=O)C(C)(C)[C@@H](O)CC(=O)N1 [Ixabepilone]	42	–	7	15	867	–	–	–	–	–
c1ccc(Cn2c(N3CCNCC3)nc3ccccc32)cc1 [Lerisetron]	144	267	236	> 9950	1130	–	–	–	–	–

Compound	EC50 (P. falciparum Dd2-HLH [1]; [6]) [nM]	EC50 (P. falciparum Dd2-HLH [2]; DD2, 72 h) [nM]	CC50 at 72 h [3] [nM]	CC50 at 72 h [4] [nM]	EC50 [5, 7] [nM]	EC50 (P. falciparum Dd2-HLH [1]; [8]) [nM]	EC50 [5, 9] [nM]	EC50 (P. falciparum Dd2-HLH [1]; DD2, P. falciparum blood-stage parasites, 48 hours in culture, read-out: Blood stage 48h EC50) [nM]	EC50 (P. falciparum Dd2-HLH [2]; DD2, P. falciparum blood-stage parasites, 72 hours in culture) [nM]	EC50 (P. falciparum Dd2-HLH [1]; [10]) [nM]
C[C@]12O[C@H](C[C@]1(O)CO)n1c3ccccc3c3c4c(c5c6ccccc6n2c5c31)CNC4=O [Lestaurtinib]	–	–	29	551	1020	–	–	88	259	–
COCCNCc1ccc(-c2cc3nccc(Oc4ccc(NC(=O)C5(C(=O)Nc6ccc(F)cc6)CC5)cc4F)c3s2)nc1 [MG-516]	144	673	1460	2250	2180	–	–	–	–	–
COc1ccc(-c2ccc3ncc4c(c3c2)n(-c2ccc(N3CCNCC3)c(C(F)(F)F)c2)c(=O)n4C)cn1 [NVP-BGT226, reference compound]	1	6	3	35	1	0.6	0.5	–	–	–
C=C[C@H]1C[N@@]2CC[C@H]1C[C@@H]2[C@@H](O)c1ccnc2ccc(OC)cc12 [Quinidine]	41	84	–	> 9950	> 10000	–	–	–	–	–
Cn1cc(CNCC2CCN(c3ncc(C(=O)NO)cn3)CC2)c2ccccc21 [Quisinostat, reference compound]	–	3	–	33	–	1	8	–	–	–
COCCN1CCN(Cc2ccc(-c3n[nH]c4c3C(=O)c3c(NC(=O)NN5CCOCC5)cccc3-4)cc2)CC1 [RGB-286638]	138	300	–	58	87	–	–	–	–	–
O=C(CCCCCCNC(=O)c1cnc(N(c2ccccc2)c2ccccc2)nc1)NO [Ricolinostat]	555	770	–	> 9950	4370	–	–	–	–	–
c1cc(-c2nc3ccc(-c4ccc5nc(-c6ccncc6)[nH]c5c4)cc3[nH]2)ccn1 [Ridinilazole]	–	90	3110	> 9950	215	–	–	–	–	–
CC[C@H](C(=O)N1CCCC[C@H]1C(=O)O[C@H](CCc1ccc(OC)c(OC)c1)c1cccc(OCC(=O)NCCNC(=O)COc2cccc([C@@H](CCc3ccc(OC)c(OC)c3)OC(=O)[C@@H]3CCCCN3C(=O)[C@@H](CC)c3cc(OC)c(OC)c(OC)c3)c2)c1)c1cc(OC)c(OC)c(OC)c1 [Rimiducid]	59	411	–	> 9950	> 10000	–	–	–	–	–
CC(C)n1nc(-c2ccc3oc(N)nc3c2)c2c(N)ncnc21 [Sapanisertib]	187	305	–	102	665	–	–	–	–	–
COCCn1c2c([n+](Cc3cnccn3)c1C)C(=O)c1ccccc1C2=O [Sepantronium bromide]	21	82	–	56	10	–	–	–	–	–
CC(=O)Nc1cccc(-n2c(=O)n(C3CC3)c(=O)c3c(Nc4ccc(I)cc4F)n(C)c(=O)c(C)c32)c1 [Trametinib dimethyl sulfoxide]	160	300	119	> 9950	–	–	–	–	–	–
C/C=C/C[C@@H](C)C(=O)[C@H]1C(=O)N[C@@H](C(C)C)C(=O)N(C)CC(=O)N(C)[C@@H](CC(C)C)C(=O)N[C@@H](C(C)C)C(=O)N(C)[C@@H](CC(C)C)C(=O)N[C@@H](C)C(=O)N[C@H](C)C(=O)N(C)[C@@H](CC(C)C)C(=O)N(C)[C@@H](CC(C)C)C(=O)N(C)[C@@H](C(C)C)C(=O)N1C [Valspodar]	307	370	–	> 9950	3	–	–	–	–	–
CC[C@]1(O)C[C@@H]2CN(CCc3c([nH]c4ccccc34)[C@@](C(=O)OC)(c3cc4c(cc3OC)N(C)[C@H]3[C@@](O)(C(=O)OC)[C@H](OC(C)=O)[C@]5(CC)C=CCN6CC[C@]43[C@@H]65)C2)C1 [Vinblastine sulfate]	29	24	–	102	1100	–	–	–	–	–
FC(F)c1nc2ccccc2n1-c1nc(N2CCOCC2)nc(N2CCOCC2)n1 [ZSTK-474]	238	841	–	762	973	–	–	–	–	–
CCOC(=O)[C@H]1O[C@@H]1C(=O)N[C@@H](CC(C)C)C(=O)NCCC(C)C [aloxistatin, reference compound]	–	69	–	> 9950	> 10000	–	–	–	–	31
COc1ncc(-c2ccc3nccc(-c4ccnnc4)c3c2)cc1NS(=O)(=O)c1ccc(F)cc1F [omipalisib, reference compound]	–	158	–	46	230	–	–	–	–	159
